Counter-ions that a name gives are not always drawn. Like-named read-outs stand apart in the source and are kept apart here.
What was measured:
[1] = system: SARS-CoV-2; test: microbe, parasite or virus in culture; assay type: cell-based; conditions: for EC50: read-out: HeLa-ACE2 CoV-2 EC50 GeoMean
[2] = system: HeLa-ACE2 cells; test: Uninfected HeLa-ACE2 24 h live/dead cytotoxicity counter screen; assay type: cell-based, human
[3] = system: SARS-CoV-2; test: microbe, parasite or virus in culture; assay type: cell-based
[4] = system: SARS-CoV-2; test: microbe, parasite or virus in culture; assay type: cell-based; remark: listed apart in the source
[5] = system: SARS-CoV-2; assay type: cell-based; conditions: combination with remdesivir
[6] = system: HeLa-ACE2 cells; test: cells; assay type: cell-based, human; conditions: read-out: HeLa-ACE2 TOA cell count EC50 GeoMean
[7] = system: HeLa-ACE2 cells
[8] = system: Calu-3 cells; conditions: read-out: Calu-3 cell count EC50 GeoMean; detail block
[9] = system: HepG2; test: HepG2 72 h CellTiter-Glo cytotoxicity; conditions: 72 h
[10] = system: HEK293T; test: HEK293T 72 h CellTiter-Glo cytotoxicity; conditions: 72 h
[11] = system: Calu-3 cells; test: Uninfected Calu-3 48 h Cell-Titer Glo cytotoxicity counter screen
[12] = Uninfected HeLa-ACE2 24 h live/dead cytotoxicity counter screen; assay type: cell-based, human; conditions: human, uninfected HeLa-ACE2 cells, unrounded geometric mean; read-out: HeLa-ACE2 uninfected cytotoxicity CC50 GeoMean
[13] = system: SARS-CoV-2; assay type: cell-based
[14] = system: HeLa-ACE2 cells; test: cells; conditions: Homo sapiens, HeLa-ACE2, read-out: HeLa-ACE2 cell count EC50 GeoMean, unrounded geometric mean
[15] = system: Calu-3 cells; test: cells; conditions: Homo sapiens
[16] = Uninfected Calu-3 48 h Cell-Titer Glo cytotoxicity counter screen; conditions: human, uninfected Calu-3 cells, Calu-3 uninfected cytotoxicity CC50 GeoMean, unrounded geometric mean
[17] = curve plateau at infinite concentration

SMILES: CN(C)CC1=C[CH]([Fe][CH]2C=CC=C2)C=C1CNc1ccnc2cc(Cl)ccc12 (stereo not drawn) [Ferroquine]
- HeLa-ACE2 CoV-2 Sinf Average [1, 17]: -97%
- EC50 ([1]; detail block): 1.31 µM
- HeLa-ACE2 SI ([1]; selectivity index, uninfected HeLa-ACE2 CC50 / SARS-CoV-2 EC50): 10.29
- HeLa-ACE2 uninfected cytotoxicity Sinf Average [2, 17]: -100%
- CC50 ([2]; detail block, read-out: HeLa-ACE2 uninfected cytotoxicity CC50 GeoMean): 13.4 µM
- Calu-3 CoV-2 Sinf Average [3, 17]: -100%
- EC50 ([3]; read-out: Calu-3 CoV-2 EC50 GeoMean): > 9.98 µM
- TOA:HeLa-ACE2 EC50 Ratio [4]: 7.345
- HeLa-ACE2 TOA CoV-2 Sinf Average [4, 17]: -100%
- EC50 ([4]; read-out: HeLa-ACE2 TOA CoV-2 EC50 GeoMean): > 9.59 µM
- HeLa-ACE2 synergy score with remdesivi [5]: -2.076 δ
- EC50 [6]: > 9.59 µM
- HeLa-ACE2 cell count Sinf Average [7, 17]: -53%
- EC50 ([7]; read-out: HeLa-ACE2 cell count EC50 GeoMean, detail block): > 6.8 µM
- EC50 [8]: > 9.98 µM
- HepG2 72-hour cytotoxicity Sinf Average [9]: -100%
- CC50 ([9]; read-out: HepG2 72-hour cytotoxicity CC50 GeoMean): 4.72 µM
- HEK293T 72-hour cytotoxicty Sinf Average [10]: -100%
- CC50 ([10]; read-out: HEK293T 72-hour cytotoxicty CC50 GeoMean): 7.24 µM
- Calu-3 uninfected cytotoxicity Sinf Average [11, 17]: -100%
- CC50 ([11]; read-out: Calu-3 uninfected cytotoxicity CC50 GeoMean, detail block): 17.5 µM

SMILES: N=C(N)c1ccc2cc(OC(=O)c3ccc(N=C(N)N)cc3)ccc2c1 [Nafamostat mesylate]
- EC50 ([1]; Severe acute respiratory syndrome coronavirus 2, HeLa-ACE2, unrounded geometric mean): > 9.59 µM
- CC50 at 24 h [12]: > 39.8 µM
- Emax ([3]; Severe acute respiratory syndrome coronavirus 2, Calu-3, 48 h, curve-fit effect at infinite concentration, average, read-out: Calu-3 CoV-2 Sinf Average): 93%
- EC50 ([3]; Severe acute respiratory syndrome coronavirus 2, Calu-3, unrounded geometric mean, read-out: Calu-3 CoV-2 EC50 GeoMean): 0.024 µM
- EC50 ([3]; Severe acute respiratory syndrome coronavirus 2, Calu-3, geomean, read-out: SARS-CoV-2 EC50): 0.024 µM
- effect on viral replication in ALI-HBECs [13]: inhibited viral replication
- EC50 [14]: > 9.59 µM
- Emax ([15]; Calu-3, 48 h, read-out: Calu-3 cell count Sinf Average): 100%
- EC50 ([15]; Calu-3, read-out: Calu-3 cell count EC50 GeoMean, unrounded geometric mean): 0.04 µM
- EC50 ([15]; Calu-3, read-out: cell count EC50, Calu-3, geomean, ^↑ = increasing dose-response curve): 0.04 µM
- CC50 at 48 h [16]: > 29.9 µM
- Calu-3 uninfected cytotoxicity Sinf Average ([11]; curve-fit effect at infinite concentration, average): -100%

— paper PMC8175350, “Drug repurposing screens identify chemical entities for the development of COVID-19 interventions” (Nature Communications, 2021)
